Experimental data: patent publication US8771734B2, “Sustained-release hydrogel preparation” (Medgel Corporation, priority 2003, dated 2014)

Experiment: In vitro release experiment (Pt by atomic absorption)
Assay type: physicochemical
Conditions: when no interaction with gelatin was created
Method: The thus resulting gelatin sheet of 2×2 cm following impregnation of the aqueous CDDP solution (water content: 97%) was placed in 10 ml of a phosphate buffer (PBS, pH 7.4) containing 0.1% Tween80, and shaken in a 37° C. incubator at 60 rpm/min. At a predetermined time, 5 ml of the supernatant was taken out. The same amount of 0.1% Tween80/PBS was immediately added to the sheet and put back in the incubator. Pt concentration in the samples was quantitatively determined three times using an atomic absorption photometer (Hitachi Model Z-8000, Hitachi, Ltd., Tokyo).

time until CDDP is entirely released: approximately 3 hrs
SMILES: [NH2][Pt]([NH2])([Cl])[Cl] [CDDP, cisplatin]
